The subject of one data set is 38 isolated receptors. The data set is described as follows: Receptor ligand binding in vitro (Nova Labs).
Data set [1] relates to mice. Briefly: Home cage locomotor activity. In kind it is in vivo. On the procedure:
To measure home cage locomotor activity, the home cage was placed on a platform of an activity monitor (Stoelting Instruments). Home cage locomotor activity movements were recorded at one minute intervals for 15 minutes. Subjects received saline or AIT-082 and were returned to their home cages. Ten minutes after injection, the home cage was replaced on the platform of the activity monitor. Home cage locomotor activity movements were recorded at one minute intervals for 30 minutes. During the first five minutes, grooming activity was also monitored and recorded.

The next data set deals with Swiss Webster mice. The data set is described as follows: Win-shift T-maze memory test, Swiss Webster mice. Format: in vivo. Particulars: for Win-shift Memory Test, Correct responses: 90-second inter-trial interval. On the procedure:
Male Swiss Webster mice six months (young adult) and eleven months (old) of age, obtained from the National Institute on Aging, were maintained in individual cages, on a […] light/dark cycle with continuous access to water. Food was limited so that the mice stabilized at 80% of free feeding weight. Mice were weighed and handled daily for one week. The win-shift model was run as described in the literature and consists of a T-maze in which the correct response alternates after each correct trial. The interval between trials is varied and allows for the determination of the longest period between trials that a subject can remember the correct response on the previous trial. This allows the measure of the duration of the memory trace. […] The reward goal box is alternated after each correct trial. Ten trials per mouse are run each day. […] The latency time to leave the start box is recorded as a measure of motivation, the running time (the time from leaving the start box to reaching the goal box) is recorded as a measure of performance, and the number of correct responses as a measure of memory.
The drugs used in this example are 4-((3-(1,6-dihydro-6-oxo-9-purin-9-yl)-1-oxopropyl)amino) benzoic acid (AIT-082), as an exemplary potassium salt, tacrine hydrochloride (tetrahydroaminoacridine, THA, Sigma Chemical Co., St. Louis, Mo.), and physostigmine, hemisulfate salt (PHY, Sigma Chemical Co., St. Louis, Mo.). The drugs were dissolved in saline and prepared fresh daily. All injections were made at a volume of 0.1 ml/10 grams body weight. When testing drug effects, intraperitoneal (i.p.) injections of AIT-082 or THA were made one hour prior to the start of testing. Due to its shorter duration of action, PHY was injected 30 minutes prior to testing. Control subjects receive a similar injection of saline (vehicle).
To determine the duration of the memory trace, subjects were administered drug or saline and 30 minutes (PHY) or 1 hour (AIT-082 or THA) later they were given a single reference run with the milk reward in both goal boxes. After the indicated inter-trial delay, subjects were returned to the start box and given the first test trial with the milk reward only in the goal box opposite to the one entered on the previous correct trial. The subjects were given 10 trials with the reward alternating only after correct responses.
To determine if tolerance to the biological effects of AIT-082 developed, drug or saline was administered daily for 18 days prior to the testing in the standard win-shift paradigm.

For a further data set, the system named is rat caudate nuclei. The data set is described as follows: GAD activity in rat caudate nuclei damaged by NMDA. In kind it is in vivo. On the procedure: The effect of AIT-082 on in vivo neuroprotection was also assessed by assaying for glutamic acid decarboxylase (GAD) activity.
GAD activity in rat caudate nuclei was damaged in vivo by NMDA. Increasing amounts of NMDA (25-300 nmoles) were unilaterally infused into caudate nuclei of rats. Eight to 10 days after the injections, glutarnic acid decarboxylase (GAD) activity was assayed, as an index of the loss of GABA-ergic neurons. NMDA produced a dose-dependent lesion, which at its maximal extension caused a reduction of GAD activity by 50% in comparison with that of contralateral sham-operated nuclei (control). […] The necrotic areas are in white, whereas the shadow is the surrounding edema GAD activity was evaluated by measuring the ex novo formation of [^3H]GABA from dissected striata exposed to 1 μCi of [^3H]glutamate for 1 hour at 37° C. GABA was assayed by HPLC with fluorescence detection and the [3H]label associated with GABA was measured.

In the next data set the test system is GDNF. The data set is described as follows: Summary of effects on growth factor mRNA and protein (Table R): GDNF. Further details: key: ± = mRNA; + = protein; nt = not tested. An excerpt: The constellation of effects of AIT-082 on production of mRNA encoding growth factors and on production of growth factor proteins is shown in Table R. The results summarized in […] show both transcriptional and translational effects on growth factors that are in the categories of neurotrophins, pleiotrophins, members of the S100 family of EF hand calcium binding proteins, and members of the TGFβ superfamily. As indicated, effects have been shown at both the mRNA (transcriptional) and protein (translational) levels.

In data set [2] the test system is mice. Particulars: oral or intraperitoneal route, preliminary.

Marks after values point to notes of the source that are not given here.

Usually LD50 stands for the dose expected to kill half of the subjects tested.

With `O=C(CCn1cnc2c(=O)[nH]cnc21)Nc1ccc(C(=O)O)cc1` [AIT-082, N-4-carboxyphenyl-3-(6-oxohydropurin-9-yl)propanamide], the “inhibition of ligand binding” value in the data set on 38 isolated receptors was “no activity”. The “Locomotor activity, Movements (mean ± S.D.) Post-drug” value was determined as 1375 ± 563 in the data set on mice [1] (AIT dose 0.005 mg/kg), 1508 ± 456 with mice [1] (AIT dose 0.05 mg/kg), 1320 ± 689 in the data set on mice [1] (AIT dose 0.5 mg/kg) and 1098 ± 189 in the data set with mice [1] (AIT dose 30.0 mg/kg). Further, the “Locomotor activity, Movements (mean ± S.D.) Difference” value in the data set on mice [1] (AIT dose 0.005 mg/kg, pre-drug minus post-drug) is on record as 509 ± 429; in the data set with mice [1] (AIT dose 0.05 mg/kg), 209 ± 340; with mice [1] (AIT dose 0.5 mg/kg) it was 290 ± 435; in the data set on mice [1] (AIT dose 30.0 mg/kg), 342 ± 267. Moreover, the “Win-shift Memory Test, Correct responses” value in the data set with Swiss Webster mice (AIT-082 0.5 mg/kg i.p.) is 6.5* Correct responses/10 trials; in the data set with Swiss Webster mice (AIT-082 30.0 mg/kg i.p.), 8.2* Correct responses/10 trials. Besides, in the data set on Swiss Webster mice (AIT-082 30.0 mg/kg daily for 18 days prior to win-shift testing), the Tolerance was 7.6* Correct responses/10 trials. Further, the onset of action in the data set on Swiss Webster mice (data not shown) stood at 1 h. Also, in the data set on Swiss Webster mice (single dose of 60 mg/kg), the duration of action entry is recorded as “more than seven days”. Besides, in the data set with rat caudate nuclei (daily intraperitoneal injection for seven days, 200 mnoles NMDA), the “GAD activity in damaged striata” value is “nearly completely preserved GAD activity”. Further, the “loss of GAD activity” value with rat caudate nuclei (local, 300 mnoles AIT-082 coinfused with 200 nmoles NMDA) was “almost completely prevented the loss of GAD activity”. For the same molecule, the “GDNF, effect on mRNA/protein production” value in the data set on GDNF (Aged Brain), in the data set on GDNF (Lesioned Brain), with GDNF (Normal Brain) and in the data set with GDNF (Normal Spinal Cord) was “+” throughout. The molecule further gave an LD50 in the data set on mice [2] above 3000 mg/kg.

The values above are taken from patent US6338963B1, “Use of carbon monoxide dependent guanylyl cyclase modifiers to stimulate neuritogenesis” (NeoTherapeutics, Inc., priority 1994, dated 2002).
